This is an account of results in ChEMBL document CHEMBL1141769, “Pursaethosides A-E, triterpene saponins from Entada pursaetha” (J Nat Prod, 2005).

For one experiment, the system named is HCT-116. Kind of experiment: Cytotoxicity against human HCT116 cells after 96 hrs by MTT assay. Type of experiment: functional, cell-based. Particulars: HCT-116, 96 h. Background: Tetrazolium assays rely on reduction of a dye to a coloured formazan, in cell work by metabolically active cells.
The subject of another experiment is HT-29. Nature of the experiment: Cytotoxicity against human HT-29 cells after 96 hrs by MTT assay. Conditions: HT-29, 96 h. Type of experiment: functional, cell-based.

`CC(=O)N[C@H]1[C@H](O[C@H]2CC[C@]3(C)[C@H]4CC=C5[C@@H]6CC(C)(C)CC[C@]6(C(=O)O[C@@H]6O[C@H](CO)[C@@H](O)[C@H](O)[C@H]6O[C@@H]6OC[C@](O)(CO)[C@H]6O)[C@H](O)C[C@@]5(C)[C@]4(C)CC[C@H]3C2(C)C)O[C@H](CO[C@@H]2OC[C@H](O)[C@H](O)[C@H]2O)[C@@H](O)[C@@H]1O[C@@H]1OC[C@@H](O)[C@H](O)[C@H]1O` [PURSAETHOSIDE B]: the IC50 in the experiment on HCT-116 and in the experiment with HT-29 was greater than 100 µg/mL each time.

Consider `CC(=O)N[C@H]1[C@H](O[C@H]2CC[C@]3(C)[C@H]4CC=C5[C@@H]6CC(C)(C)CC[C@]6(C(=O)O[C@@H]6O[C@H](CO)[C@@H](O)[C@H](O)[C@H]6O[C@@H]6OC[C@](O)(CO)[C@H]6O)[C@H](O)[C@H](O)[C@@]5(C)[C@]4(C)CC[C@H]3C2(C)C)O[C@H](CO[C@@H]2OC[C@H](O)[C@H](O)[C@H]2O)[C@@H](O)[C@@H]1O[C@@H]1OC[C@@H](O)[C@H](O)[C@H]1O` [PURSAETHOSIDE C], for which the IC50 in the experiment on HCT-116 and in the experiment with HT-29 was greater than 100 µg/mL in each case.

For orientation: IC50 means the concentration needed to halve the response being measured. Low readings indicate greater potency in that assay, high ones weaker potency in that assay.
